Assay results as given in US20140378551A1, “Composition for the Prophylactic Treatment of Neuropathic Pain” (Universite d'Auvergne, priority 2011, published 2014).
Where two headings read alike, the source gives them in different places.

How the values were obtained:
[1] = tested on: neuropathic pain in rats; conditions: sciatic nerve ligature or formalin injection, administered during or after the operation (Eisenberg 1995; Carlton 1995), cited from earlier work
[2] = tested on: neuropathic pain induced by spinal nerve ligation among rats; assay: Von Frey test: mechanical allodynia, spinal nerve ligation model; format: in vivo; conditions: 20 mg/kg/rat/day i.p.
Procedure: The effects of the prolonged and preventive administration of memantine were first of all studied among rats. The model used was that of the ligation of the spinal nerve L5 (herein after called SNL for spinal nerve ligation) among rats. The emergence of neuropathic pain is assessed according to the following criteria: • the behavior of the rat following the spinal nerve ligation (SNL), • cognition, and • molecular events, including the expression of phosphorylated tyrosine 1472 of the NR2B sub-unit of the NMDA receptor at the spinal level.
The study was based on the comparison of the two main groups of animals. The first group was a control group. The rats of the control group, designated as “Sham” in the graphs, underwent no operation. They are used to assess the role of the injected substances on the individual, without there being any emergence of neuropathic pain.
Two sub-groups were set up in this group: • one sub-group treated with the vehicle which is a saline solution of NaCl 0.9% by mass, in a dose of 1 mL/kg/rat/day, by intraperitoneal injection; and • one sub-group treated with memantine in a dose of 20 mg/kg/rat/day, by intraperitoneal injection.
The second group of animals comprises rats having to undergo to spinal nerve ligation and therefore likely to develop neuropathic pain. This group is referred to in the graphs by the term SNL. As in the control group, this group is divided into two sub-groups: • one sub-group treated with the vehicle, which is a saline solution of NaCl 0.9% by mass, in a dose of 1 mL/kg/rat/day, by intraperitoneal injection; and • one sub-group treated by memantine in a dose of 20 mg/kg/rat/day, by intraperitoneal injection. […]
7. Seven to 14 days after the surgery, the neuropathic, hyperalgesic or allodynic rats are selected according to their response to nociceptive and non-nociceptive stimulation assessed through appropriate tests (see paragraph 6.1.2). […]

## CC12CC3CC(C)(C1)CC(N)(C3)C2 [memantine, 1-amino-3,5-dimethyl-adamantane]
[1]
  development of neuropathic pain in rats: limits the appearance of symptoms of neuropathic pain but only dose-dependently and only for a determined period of time
[1]; listed as Memantine
  development of neuropathic pain in rats: positive effect in the development of neuropathic pain in rats
[2]; SNL rats, 4 days preceding and 3 days following the operation
  threshold of response (mechanical allodynia): restores a threshold of response almost identical to that of non-operated rats
[2]; SNL rats, solely post-operative injection
  threshold of response (mechanical allodynia): not enough to restore the normal behavior of the rats
[2]; non-operated (Sham) rats, versus vehicle
  threshold of response (mechanical allodynia): no influence whatsoever on the behavior of non-operated rats
